For 15 molecules, EC50 results are on record in patent publication US12440496B2, “Natriuretic peptide receptor a agonists useful for the treatment of cardiometabolic diseases, kidney disease and diabetes” (Merck Sharp & Dohme LLC, priority 2019, dated 2025).

Structures are written as SMILES.

The experiment deals with T1, hNPRA (Homo sapiens, UniProt P16066).
T1 construct: expressed in transfected cells
T1 sequence (P16066 33-1061): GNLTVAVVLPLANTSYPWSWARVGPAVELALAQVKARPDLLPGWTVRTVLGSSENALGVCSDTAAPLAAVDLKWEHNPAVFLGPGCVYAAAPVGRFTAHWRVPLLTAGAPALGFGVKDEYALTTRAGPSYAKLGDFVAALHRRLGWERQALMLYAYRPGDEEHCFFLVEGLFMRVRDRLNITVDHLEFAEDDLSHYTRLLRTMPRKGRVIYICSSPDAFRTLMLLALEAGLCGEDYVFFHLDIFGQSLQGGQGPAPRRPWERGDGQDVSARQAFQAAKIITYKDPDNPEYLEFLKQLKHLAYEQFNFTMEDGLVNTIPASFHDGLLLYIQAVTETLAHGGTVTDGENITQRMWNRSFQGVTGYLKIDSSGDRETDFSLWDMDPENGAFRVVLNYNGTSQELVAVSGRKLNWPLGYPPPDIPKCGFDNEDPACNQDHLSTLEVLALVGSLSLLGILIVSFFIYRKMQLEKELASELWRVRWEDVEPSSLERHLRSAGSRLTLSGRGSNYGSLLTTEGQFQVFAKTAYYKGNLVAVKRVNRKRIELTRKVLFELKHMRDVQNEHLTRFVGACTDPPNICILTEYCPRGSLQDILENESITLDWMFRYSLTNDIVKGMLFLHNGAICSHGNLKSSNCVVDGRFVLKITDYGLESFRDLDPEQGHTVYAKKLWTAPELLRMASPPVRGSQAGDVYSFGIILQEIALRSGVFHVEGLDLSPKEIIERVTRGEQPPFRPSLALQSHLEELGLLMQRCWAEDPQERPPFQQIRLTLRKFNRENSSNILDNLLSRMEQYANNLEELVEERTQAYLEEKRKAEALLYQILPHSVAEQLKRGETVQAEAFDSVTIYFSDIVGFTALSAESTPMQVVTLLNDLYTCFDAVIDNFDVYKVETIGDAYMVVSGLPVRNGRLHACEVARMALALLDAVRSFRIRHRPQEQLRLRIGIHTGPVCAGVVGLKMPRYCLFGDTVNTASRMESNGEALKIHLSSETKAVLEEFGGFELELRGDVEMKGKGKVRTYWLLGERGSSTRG
As to the kind of experiment: NPRA Functional Cell Assay (cGMP HTRF, NPRA HEK JumpIn stable cells). The conditions noted are these: cGMP production, 1 hour at 37° C., 10-point dose response. It counts as cell-based. Put shortly: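 cGMP HTRF read-out after 1 hour compound treatment at 37° C. of human NPRA-expressing HEK JumpIn cells, 1500 cells/well, in buffer with phosphodiesterase inhibitors IBMX and RO20 (100 uM each). Signal converted to [cGMP] by calibration curve; EC50s fitted by 4-parameter logistic; 50 nM h-ANP as positive response.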
`CC(C)(C)[C@H]1CCc2nc3sc(C(=O)N[C@H](CCN4CCC(O)CC4)c4cccc(C(=O)N5CCO[C@H]6CNC[C@H]65)c4)nc3cc2C1` (racemic) [Example 161, rac-(7S)-7-tert-butyl-N-[rac-(1R)-3-(4-hydroxy-1-piperidyl)-1-[3-[rac-(4aR,7aS)-3,4a,5,6,7,7a-hexahydro-2H-pyrrolo[3,4-b][1,4]oxazine-4-carbonyl]phenyl]propyl]-5,6,7,8-tetrahydrothiazolo[5,4-b]quinoline-2-carboxamide]: the response was half-maximal at 1950 nM (EC50). Then `CC(C)(C)[C@H]1CCc2nc3sc(C(=O)N[C@H](CCN4CCC(O)CC4)c4ccc(-c5ccnnc5)cc4)nc3cc2C1` (racemic) [Example 162, rac-(7S)-7-tert-butyl-N-[rac-(1R)-3-(4-hydroxy-1-piperidyl)-1-(4-pyridazin-4-ylphenyl)propyl]-5,6,7,8-tetrahydrothiazolo[5,4-b]quinoline-2-carboxamide], with 198 nM; and `CC(C)(C)[C@H]1CCc2nc3sc(C(=O)N[C@H](CCN4CCC(O)CC4)c4ccc(-c5cc[n+]([O-])nc5)cc4)nc3cc2C1` (racemic) [Example 163, rac-(7S)-7-tert-butyl-N-[rac-(1R)-3-(4-hydroxypiperidin-1-ium-1-yl)-1-[4-(1-oxidopyridazin-1-ium-4-yl)phenyl]propyl]-5,6,7,8-tetrahydrothiazolo[5,4-b]quinoline-2-carboxamide; 2,2,2-trifluoroacetate], with 357 nM; and `CC(C)(C)[C@H]1CCc2nc3sc(C(=O)N[C@H](CCN4CCC(O)CC4)c4ccc(-c5ccc(=O)[nH]c5)cc4)nc3cc2C1` (racemic) [Example 164, rac-(7S)-7-tert-butyl-N-[rac-(1R)-3-(4-hydroxypiperidin-1-ium-1-yl)-1-[4-(6-hydroxy-3-pyridyl)phenyl]propyl]-5,6,7,8-tetrahydrothiazolo[5,4-b]quinoline-2-carboxamide; 2,2,2-trifluoroacetate], with 590 nM.

Turning to `CC(C)(C)[C@H]1CCc2nc3sc(C(=O)N[C@H](CCN4CCC(O)CC4)c4ccc(-c5ccc(O)nn5)cc4)nc3cc2C1` (racemic) [Example 165, rac-(7S)-7-tert-butyl-N-[rac-(1R)-3-(4-hydroxypiperidin-1-ium-1-yl)-1-[4-(6-hydroxypyridazin-3-yl)phenyl]propyl]-5,6,7,8-tetrahydrothiazolo[5,4-b]quinoline-2-carboxamide; 2,2,2-trifluoroacetate], the EC50 – broadly, the midpoint of the concentration-response curve – is 611 nM. As to `CC(C)(C)[C@H]1CCc2nc3sc(C(=O)N[C@H](CCN4CCC(O)CC4)c4ccc(-c5c[nH]nc5C#N)cc4)nc3cc2C1` (racemic) [Example 166, rac-(7S)-7-tert-butyl-N-[rac-(1R)-1-[4-(3-cyano-1H-pyrazol-4-yl)phenyl]-3-(4-hydroxypiperidin-1-ium-1-yl)propyl]-5,6,7,8-tetrahydrothiazolo[5,4-b]quinoline-2-carboxamide; 2,2,2-trifluoroacetate], the EC50 was found to be 614 nM. In the case of `CC(C)(C)[C@H]1CCc2nc3sc(C(=O)N[C@H](CCN4CCC(O)CC4)c4ccc(-c5c[nH]nc5C(F)(F)F)cc4)nc3cc2C1` (racemic) [Example 167, rac-(7S)-7-tert-butyl-N-[rac-(1R)-3-(4-hydroxypiperidin-1-ium-1-yl)-1-[4-[3-(trifluoromethyl)-1H-pyrazol-4-yl]phenyl]propyl]-5,6,7,8-tetrahydrothiazolo[5,4-b]quinoline-2-carboxamide; 2,2,2-trifluoroacetate] it was 666 nM; in that of `CC(C)(C)[C@H]1CCc2nc3sc(C(=O)N[C@H](CCN4CCC(O)CC4)c4ccc(-c5ccnc(N)c5)cc4)nc3cc2C1` (racemic) [Example 168, rac-(7S)-7-tert-butyl-N-[rac-(1R)-1-[4-(2-amino-4-pyridyl)phenyl]-3-(4-hydroxy-1-piperidyl)propyl]-5,6,7,8-tetrahydrothiazolo[5,4-b]quinoline-2-carboxamide], 773 nM.

For `CC(C)(C)[C@H]1CCc2nc3sc(C(=O)N[C@H](CCN4CCC(O)CC4)c4ccc(-c5ncns5)cc4)nc3cc2C1` (racemic) [Example 169, rac-(7S)-7-tert-butyl-N-[rac-(1R)-3-(4-hydroxy-1-piperidyl)-1-[4-(1,2,4-thiadiazol-5-yl)phenyl]propyl]-5,6,7,8-tetrahydrothiazolo[5,4-b]quinoline-2-carboxamide], the midpoint of the response, the EC50, lay at 793 nM. In the case of `Cn1cnnc1-c1ccc([C@@H](CCN2CCC(O)CC2)NC(=O)c2nc3cc4c(nc3s2)CC[C@H](C(C)(C)C)C4)cc1` (racemic) [Example 170, rac-(7S)-7-tert-butyl-N-[rac-(1R)-3-(4-hydroxy-1-piperidyl)-1-[4-(4-methyl-1,2,4-triazol-3-yl)phenyl]propyl]-5,6,7,8-tetrahydrothiazolo[5,4-b]quinoline-2-carboxamide] it was 863 nM; in that of `Cc1n[nH]cc1-c1ccc([C@@H](CCN2CCC(O)CC2)NC(=O)c2nc3cc4c(nc3s2)CC[C@H](C(C)(C)C)C4)cc1` (racemic) [Example 171, rac-(7S)-7-tert-butyl-N-[rac-(1R)-3-(4-hydroxy-1-piperidyl)-1-[4-(3-methyl-1H-pyrazol-4-yl)phenyl]propyl]-5,6,7,8-tetrahydrothiazolo[5,4-b]quinoline-2-carboxamide], 913 nM. As to `CC(C)(C)[C@H]1CCc2nc3sc(C(=O)N[C@H](CCN4CCC(O)CC4)c4ccc(-c5cnc(O)c(C#N)c5)cc4)nc3cc2C1` (racemic) [Example 172, rac-(7S)-7-tert-butyl-N-[rac-(1R)-1-[4-(5-cyano-6-hydroxy-3-pyridyl)phenyl]-3-(4-hydroxypiperidin-1-ium-1-yl)propyl]-5,6,7,8-tetrahydrothiazolo[5,4-b]quinoline-2-carboxamide; 2,2,2-trifluoroacetate], it took 925 nM to reach a half-maximal effect (EC50). `Cc1n[nH]c(C)c1-c1ccc([C@@H](CCN2CCC(O)CC2)NC(=O)c2nc3cc4c(nc3s2)CC[C@H](C(C)(C)C)C4)cc1` (racemic) [Example 173, rac-(7S)-7-tert-butyl-N-[rac-(1R)-1-[4-(3,5-dimethyl-1H-pyrazol-4-yl)phenyl]-3-(4-hydroxy-1-piperidyl)propyl]-5,6,7,8-tetrahydrothiazolo[5,4-b]quinoline-2-carboxamide] gave an EC50 of 959 nM. In the case of `Cc1[nH]cnc1-c1ccc([C@@H](CCN2CCC(O)CC2)NC(=O)c2nc3cc4c(nc3s2)CC[C@H](C(C)(C)C)C4)cc1` (racemic) [Example 174, rac-(7S)-7-tert-butyl-N-[rac-(1R)-3-(4-hydroxy-1-piperidyl)-1-[4-(5-methyl-1H-imidazol-4-yl)phenyl]propyl]-5,6,7,8-tetrahydrothiazolo[5,4-b]quinoline-2-carboxamide] it was 991 nM; in that of `CC(C)(C)[C@H]1CCc2nc3sc(C(=O)N[C@H](CCN4CCC(O)CC4)c4ccc(-c5ccncc5N)cc4)nc3cc2C1` (racemic) [Example 175, rac-(7S)-7-tert-butyl-N-[rac-(1R)-1-[4-(3-amino-4-pyridyl)phenyl]-3-(4-hydroxy-1-piperidyl)propyl]-5,6,7,8-tetrahydrothiazolo[5,4-b]quinoline-2-carboxamide], 1020 nM.
